SMILES strings stand for the structures.

These results are taken from ChEMBL document CHEMBL1135635, “Kappa-opioid receptor model in a phospholipid bilayer: molecular dynamics simulation” (J Med Chem, 2002).

The experiment concerns the target Kappa-type opioid receptor (Cavia porcellus, UniProt P41144). The experiment in a line: Inhibition of [3H]U-69593 binding towards Opioid receptor kappa 1 in guinea pig brain homogenates. Format: tissue-based.

Chain of Kappa-type opioid receptor (P41144 whole entry): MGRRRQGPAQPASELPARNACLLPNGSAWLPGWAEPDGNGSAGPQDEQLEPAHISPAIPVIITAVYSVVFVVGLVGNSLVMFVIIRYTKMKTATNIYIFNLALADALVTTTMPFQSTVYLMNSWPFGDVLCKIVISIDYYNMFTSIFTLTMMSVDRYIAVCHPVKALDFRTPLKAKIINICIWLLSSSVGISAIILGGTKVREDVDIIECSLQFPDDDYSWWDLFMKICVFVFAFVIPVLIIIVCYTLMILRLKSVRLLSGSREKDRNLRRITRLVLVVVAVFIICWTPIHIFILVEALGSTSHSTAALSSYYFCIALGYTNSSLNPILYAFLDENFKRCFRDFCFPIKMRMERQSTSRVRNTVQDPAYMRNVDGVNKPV

One may read the Ki as the equilibrium dissociation constant of an inhibitor or competing ligand from its target. On to `C[C@H]1C2Cc3ccc(O)cc3[C@@]1(C)CCN2CC1C[C@@]1(C(=O)Nc1ccccc1)c1ccccc1` (some centres not stated), for which affinity was put at a Ki of 2.35 µM. The result for `CC(=O)OC[C@@]1(c2ccccc2)CC1CN1CC[C@]2(C)c3cc(O)ccc3CC1[C@@H]2C` (some centres not stated) reads 0.228 µM.
